Test results as given in ChEMBL document CHEMBL6096734, “Design, Synthesis and Anti-Inflammatory Evaluation of 3-Substituted 5-Amidobenzoate Derivatives as Novel P2Y14 Receptor Antagonists via Structure-Guided Molecular Hybridization” (J Med Chem, 2025).
Activity calls are given as the source filed them. The calls are words filed in the database; no cut-off is given here.

Tests used:
[1] = target: T1, P2Y purinoceptor 14 (Homo sapiens) (UniProt Q15391); settings: time 30.0 min
T1 sequence (whole entry): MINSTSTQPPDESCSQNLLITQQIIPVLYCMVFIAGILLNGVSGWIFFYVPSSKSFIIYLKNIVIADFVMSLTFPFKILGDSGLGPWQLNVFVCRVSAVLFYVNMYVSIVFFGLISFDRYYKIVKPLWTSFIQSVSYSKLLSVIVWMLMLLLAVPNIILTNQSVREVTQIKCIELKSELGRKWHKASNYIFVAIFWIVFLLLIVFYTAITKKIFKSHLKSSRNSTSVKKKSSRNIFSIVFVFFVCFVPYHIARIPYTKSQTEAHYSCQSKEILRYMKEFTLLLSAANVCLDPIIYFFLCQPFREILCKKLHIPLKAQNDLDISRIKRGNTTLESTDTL

[2] = system: Mus musculus; assay: Anti-inflammatory activity in LPS-induced male C57BL/6 mouse model of acute […] injury assessed as decrease dsDNA formation at 2 mg/kg measured after 7 days; type: functional, organism-based; settings: time 7.0 day
[3] = system: Mus musculus; assay: Anti-inflammatory activity in LPS-induced male C57BL/6 mouse model of acute […] injury assessed as decrease in monocyte count in BALF at 2 mg/kg measured after 7 days; type: functional, organism-based; settings: time 7.0 day
[4] = system: Mus musculus; assay: Anti-inflammatory activity in LPS-induced male C57BL/6 mouse model of acute […] injury assessed as decrease in Ly6G+ neutrophils in lung tissue at 2 mg/kg measured after 7 days by immunofluorescence analysis; type: functional, organism-based; settings: time 7.0 day
[5] = system: Mus musculus; assay: Anti-inflammatory activity in LPS-induced male C57BL/6 mouse model of acute […] injury assessed as decrease in caspase-1 expression at p20 subunit at 2 mg/kg measured after 7 days; type: functional, organism-based; settings: time 7.0 day
[6] = system: Mus musculus; assay: Anti-inflammatory activity in LPS-induced male C57BL/6 mouse model of acute […] injury assessed as alveolar wall thickening at 2 mg/kg measured after 7 days by H and E staining based analysis; type: functional, organism-based; settings: time 7.0 day
[7] = system: Mus musculus; assay: Anti-inflammatory activity in LPS-induced male C57BL/6 mouse model of acute […] injury assessed as decrease in ASC expression at 2 mg/kg measured after 7 days; type: functional, organism-based; settings: time 7.0 day
[8] = system: Mus musculus; assay: Anti-inflammatory activity in LPS-induced male C57BL/6 mouse model of acute […] injury assessed as decrease in lymphocyte count in BALF at 2 mg/kg measured after 7 days; type: functional, organism-based; settings: time 7.0 day
[9] = system: Mus musculus; assay: Anti-inflammatory activity in LPS-induced male C57BL/6 mouse model of acute […] injury assessed as decrease in CCL2 mRNA expression in lung at 2 mg/kg measured after 7 days by qPCR analysis; type: functional, organism-based; settings: time 7.0 day
[10] = system: Mus musculus; assay: Anti-inflammatory activity in LPS-induced male C57BL/6 mouse model of acute […] injury assessed as decrease in CCL2 level in serum at 2 mg/kg measured after 7 days by ELISA method; type: functional, organism-based; settings: time 7.0 day
[11] = system: Mus musculus; assay: Anti-inflammatory activity in LPS-induced male C57BL/6 mouse model of acute […] injury assessed as decrease in CXCL10 mRNA expression in lung at 2 mg/kg measured after 7 days by qPCR analysis; type: functional, organism-based; settings: time 7.0 day
[12] = system: Mus musculus; assay: Anti-inflammatory activity in LPS-induced male C57BL/6 mouse model of acute […] injury assessed as decrease in NLRP3 expression at 2 mg/kg measured after 7 days; type: functional, organism-based; settings: time 7.0 day
[13] = system: Mus musculus; assay: Anti-inflammatory activity in LPS-induced male C57BL/6 mouse model of acute […] injury assessed as reduction in Wet/dry weight ratio at 2 mg/kg measured after 7 days; type: functional, organism-based; settings: time 7.0 day
[14] = system: Mus musculus; assay: Anti-inflammatory activity in LPS-induced male C57BL/6 mouse model of acute […] injury assessed as reduction of intravascular congestion at 2 mg/kg measured after 7 days by H and E staining based analysis; type: functional, organism-based; settings: time 7.0 day
[15] = system: Mus musculus; assay: Anti-inflammatory activity in LPS-induced male C57BL/6 mouse model of acute […] injury assessed as decrease in CXCL1 level in serum at 2 mg/kg measured after 7 days by ELISA method; type: functional, organism-based; settings: time 7.0 day
[16] = system: Mus musculus; assay: Anti-inflammatory activity in LPS-induced male C57BL/6 mouse model of acute […] injury assessed as decrease in neutrophil count in BALF at 2 mg/kg measured after 7 days; type: functional, organism-based; settings: time 7.0 day
[17] = system: Mus musculus; assay: Anti-inflammatory activity in LPS-induced male C57BL/6 mouse model of acute […] injury assessed as decrease MPO level at 2 mg/kg measured after 7 days; type: functional, organism-based; settings: time 7.0 day
[18] = system: Mus musculus; assay: Anti-inflammatory activity in LPS-induced male C57BL/6 mouse model of acute […] injury assessed as reduction of interstitial hemorrhage at 2 mg/kg measured after 7 days by H and E staining based analysis; type: functional, organism-based; settings: time 7.0 day
[19] = system: Mus musculus; assay: Anti-inflammatory activity in LPS-induced male C57BL/6 mouse model of acute […] injury assessed as decrease in CXCL1 mRNA expression in lung at 2 mg/kg measured after 7 days by qPCR analysis; type: functional, organism-based; settings: time 7.0 day
[20] = system: Mus musculus; assay: Anti-inflammatory activity in LPS-induced male C57BL/6 mouse model of acute […] injury assessed as decrease in GSDMD-N expression at 2 mg/kg measured after 7 days; type: functional, organism-based; settings: time 7.0 day
[21] = system: Mus musculus; assay: Anti-inflammatory activity in LPS-induced male C57BL/6 mouse model of acute […] injury assessed as decrease in IL-1 beta level at 2 mg/kg measured after 7 days; type: functional, organism-based; settings: time 7.0 day
[22] = system: Mus musculus; assay: Anti-inflammatory activity in LPS-induced male C57BL/6 mouse model of acute […] injury assessed as decrease in TNF-alpha level at 2 mg/kg measured after 7 days; type: functional, organism-based; settings: time 7.0 day
[23] = system: Mus musculus; assay: Anti-inflammatory activity in LPS-induced male C57BL/6 mouse model of acute […] injury assessed as decrease CXCL9 mRNA expression in lung at 2 mg/kg measured after 7 days by qPCR analysis; type: functional, organism-based; settings: time 7.0 day
[24] = system: Mus musculus; assay: Anti-inflammatory activity in LPS-induced male C57BL/6 mouse model of acute […] injury assessed as decrease in total WBC count in BALF at 2 mg/kg measured after 7 days; type: functional, organism-based; settings: time 7.0 day
[25] = system: Mus musculus; assay: Anti-inflammatory activity in LPS-induced male C57BL/6 mouse model of acute […] injury assessed as reduction of lung edema at 2 mg/kg measured after 7 days by H and E staining based analysis; type: functional, organism-based; settings: time 7.0 day
[26] = system: Mus musculus; assay: Anti-inflammatory activity in LPS-induced male C57BL/6 mouse model of acute […] injury assessed as reduction of neutrophil infiltration at 2 mg/kg measured after 7 days by H and E staining based analysis; type: functional, organism-based; settings: time 7.0 day
[27] = system: Mus musculus; assay: Anti-inflammatory activity in LPS-induced male C57BL/6 mouse model of acute […] injury assessed as decrease in caspase-1 expression at p10 subunit at 2 mg/kg measured after 7 days; type: functional, organism-based; settings: time 7.0 day
[28] = system: Mus musculus; assay: Anti-inflammatory activity in LPS-induced male C57BL/6 mouse model of acute […] injury assessed as decrease in F4/80+ macrophage in lung tissue at 2 mg/kg measured after 7 days by immunofluorescence analysis; type: functional, organism-based; settings: time 7.0 day
[29] = system: Mus musculus; assay: Anti-inflammatory activity in LPS-induced male C57BL/6 mouse model of acute […] injury assessed as appearance of tight junction integrity at 2 mg/kg measured after 7 days by ZO-1 staining based immunofluorescence analysis; type: functional, organism-based; settings: time 7.0 day
[30] = system: Mus musculus; assay: Anti-inflammatory activity in LPS-induced male C57BL/6 mouse model of acute […] injury assessed as decrease in IL-6 level at 2 mg/kg measured after 7 days; type: functional, organism-based; settings: time 7.0 day
[31] = system: Mus musculus; assay: Anti-inflammatory activity in LPS-induced male C57BL/6 mouse model of acute […] injury assessed as decrease NE level at 2 mg/kg measured after 7 days; type: functional, organism-based; settings: time 7.0 day
[32] = target: T2, P2Y purinoceptor 14 (Homo sapiens, UniProt Q15391); assay: Antagonist activity at human P2Y14R stably expressed in HEK293 cells assessed as inhibition of UDPG-induced cAMP accumulation at 100 nM incubated for 30 mins in presence of forskolin by cAMP-Glo assay relative to control; type: functional, cell-based
T2 sequence (Q15391 whole entry): T1 sequence (whole entry)

[33] = HEK293, filed as antagonist, dose 100.0 nM

Compound: COC(=O)c1cc(NC(=O)Cn2cncn2)cc(-c2nc3ccccc3o2)c1
- inhibition [1, 33]: 41.5%

Compound: COC(=O)c1cc(NC(=O)Cn2cccc2)cc(-c2nc3ccccc3o2)c1
- inhibition ([1]; HEK293, dose 100.0 nM): 26.3%

Compound: N#Cc1ccc(CC(=O)Nc2cc(C(=O)O)cc(-c3nc4ccccc4o3)c2)cc1
- inhibition [1, 33]: 46.1%

Compound: COC(=O)c1cc(NC(=O)Cc2ccc(C)c(C)c2)cc(-c2nc3ccccc3o2)c1
- inhibition ([1]; HEK293, dose 100.0 nM): 34.5%

Compound: O=C(Cc1ccc(F)cc1)Nc1cc(C(=O)O)cc(-c2nc3ccccc3o2)c1
- inhibition ([1]; HEK293, dose 100.0 nM): 30.8%

Compound: O=C(Cc1ccccc1)Nc1cc(C(=O)O)cc(-c2nc3ccccc3o2)c1
- inhibition ([1]; HEK293, dose 100.0 nM): 35.2%

Compound: COc1ccc(CC(=O)Nc2cc(C(=O)O)cc(-c3nc4ccccc4o3)c2)cc1
- inhibition [1, 33]: 48%

Compound: O=C(Cc1cccs1)Nc1cc(C(=O)O)cc(-c2nc3ccccc3o2)c1
- inhibition ([1]; HEK293, dose 100.0 nM): 39.8%

Compound: COC(=O)c1cc(NC(=O)Cc2ccccc2)cc(-c2nc3ccccc3o2)c1
- inhibition [1, 33]: 48.6%

Compound: O=C(Cc1ccc(C(F)(F)F)cc1)Nc1cc(C(=O)O)cc(-c2nc3ccccc3o2)c1
- inhibition ([1]; HEK293, dose 100.0 nM): 23.1%

Compound: COC(=O)c1cc(NC(=O)Cc2ccc(F)cc2)cc(-c2nc3ccccc3o2)c1
- inhibition ([1]; HEK293, dose 100.0 nM): inactive

Compound: C[C@@H]1C[C@H]2[C@@H]3CCC4=CC(=O)C=C[C@]4(C)[C@@]3(F)[C@@H](O)C[C@]2(C)[C@@]1(O)C(=O)CO
- Activity [2]: Active
- Activity [3]: Active
- Activity [4]: Active
- Activity [5]: Active
- Activity [6]: Active
- Activity [7]: Active
- Activity [8]: Active
- Activity [9]: Active
- Activity [10]: Active
- Activity [11]: Active
- Activity [12]: Active
- Activity [13]: Active
- Activity [14]: Active
- Activity [15]: Active
- Activity [16]: Active
- Activity [17]: Active
- Activity [18]: Active
- Activity [19]: Active
- Activity [20]: Active
- Activity [21]: Active
- Activity [22]: Active
- Activity [23]: Active
- Activity [24]: Active
- Activity [25]: Active
- Activity [26]: Active
- Activity [27]: Active
- Activity [28]: Active
- Activity [29]: Active
- Activity [30]: Active
- Activity [31]: Active

Compound: O=C(Cc1ccc(-n2cccc2)cc1)Nc1cc(C(=O)O)cc(-c2nc3ccccc3o2)c1
- inhibition ([1]; HEK293, dose 100.0 nM): 24.2%

Compound: COC(=O)c1cc(NC(=O)Cc2ccc(-n3cccc3)cc2)cc(-c2nc3ccccc3o2)c1
- inhibition ([1]; HEK293, dose 100.0 nM): 32.3%

Compound: Cc1ccc(CC(=O)Nc2cc(C(=O)NCCOCCOCCOCCNC(=O)CCCC[C@H]3SC[C@H]4NC(=O)N[C@H]43)cc(-c3nc4ccccc4[nH]3)c2)cc1
- IC50 [32]: 0.84 nM

Compound: O=C(Cn1cccc1)Nc1cc(C(=O)O)cc(-c2nc3ccccc3o2)c1
- inhibition [1, 33]: 43.2%

Compound: O=C(Cn1cncn1)Nc1cc(C(=O)O)cc(-c2nc3ccccc3o2)c1
- inhibition ([1]; HEK293, dose 100.0 nM): 38.3%

Compound: COC(=O)c1cc(NC(=O)Cc2ccc(OC)cc2)cc(-c2nc3ccccc3o2)c1
- inhibition ([1]; HEK293, dose 100.0 nM): 39.3%

Compound: COC(=O)c1cc(NC(=O)Cc2ccc(C)cc2C)cc(-c2nc3ccccc3o2)c1
- inhibition [1, 33]: 42.3%

Compound: COC(=O)c1cc(NC(=O)Cc2ccc(C)cc2)cc(-c2nc3ccccc3s2)c1
- inhibition ([1]; HEK293, dose 100.0 nM): 34.7%

Compound: COC(=O)c1cc(NC(=O)Cc2cccs2)cc(-c2nc3ccccc3o2)c1
- inhibition ([1]; HEK293, dose 100.0 nM): 36.5%

Compound: O=C(Cc1ccc(Br)cc1)Nc1cc(C(=O)O)cc(-c2nc3ccccc3o2)c1
- inhibition ([1]; HEK293, dose 100.0 nM): 20.9%
